According to patent publication US10144715B2, “Piperazine derivatives as liver X receptor modulators” (priority 2014, dated 2018):
Like-named read-outs stand apart in the source and are kept apart here.

Tests used:
[1] = target: T1, Gal4 DNA binding domain fused to the LBD of LXRα in HEK293 cells (Homo sapiens (Human), UniProt Q13133); assay: LXR luciferase transcriptional reporter gene assay, antagonist mode (200 nM T0901317), LXRα; type: cell-based; conditions: for IC50: read-out: Cell LXRα IC50
[2] = target: T2, Gal4 DNA binding domain fused to the LBD of LXRβ in HEK293 cells (Homo sapiens (Human), UniProt P55055); assay: cell-based; type: cell-based
LXR β LBD protein [3] = target: T3, LXR β LBD protein (Homo sapiens (Human), UniProt P55055); assay: biochemical; type: biochemical; conditions: for EC50: read-out: FRET LXRβ EC50
Target sequence in this assay (P55055 222-460): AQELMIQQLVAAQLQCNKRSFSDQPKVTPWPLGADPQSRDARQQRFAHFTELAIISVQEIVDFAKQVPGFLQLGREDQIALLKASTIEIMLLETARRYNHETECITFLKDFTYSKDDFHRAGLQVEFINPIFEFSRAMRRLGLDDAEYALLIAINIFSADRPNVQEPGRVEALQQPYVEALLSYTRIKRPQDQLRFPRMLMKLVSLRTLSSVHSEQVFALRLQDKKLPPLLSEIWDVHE

[4] = target: T2, Gal4 DNA binding domain fused to the LBD of LXRβ in HEK293 cells; assay: cell-based
LXR α LBD protein [5] = target: T4, LXR α LBD protein (Homo sapiens (Human), UniProt Q13133); assay: Human LXRα coactivator recruitment FRET assay, agonist mode; type: biochemical; conditions: agonist mode
How it was run: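 Time-resolved FRET (delay 100 µs, window 200 µs) after 2 h rt incubation of compound with 10 nM (2×) GST-tagged LXRα or LXRβ LBD plus 200 nM fluorescein-SRC2-3 and 20 nM Tb-anti-GST (4×). Percent control vs concentration fit to four-parameter model; EC50 at inflection.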

LXR β LBD protein [6] = target: T3, LXR β LBD protein; assay: biochemical; type: binding
Target sequence in this assay (P55055 222-460 limits assumed): as the sequence (P55055 222-460) above

[7] = target: T1, Gal4 DNA binding domain fused to the LBD of LXRα in HEK293 cells; assay: LXR luciferase transcriptional reporter gene assay, agonist mode, LXRα; type: cell-based; conditions: for EC50: read-out: Cell LXRα EC50
LXR α LBD protein [8] = target: T4, LXR α LBD protein; assay: LXR α radioligand binding assay (SPA, competition with [3H]TO901317); conditions: read-out: LXRα Binding Ki
[9] = antagonist mode, 200 nM T0901317, HEK293 reporter gene assay
[10] = antagonist mode, 200 nM T0901317, HEK293 reporter gene assay, read-out: Cell LXRβ IC50
[11] = agonist mode, read-out: Cell LXRβ EC50

T2 sequence (P55055 222-460 limits assumed): as the sequence (P55055 222-460) above
T4 sequence (Q13133 209-447): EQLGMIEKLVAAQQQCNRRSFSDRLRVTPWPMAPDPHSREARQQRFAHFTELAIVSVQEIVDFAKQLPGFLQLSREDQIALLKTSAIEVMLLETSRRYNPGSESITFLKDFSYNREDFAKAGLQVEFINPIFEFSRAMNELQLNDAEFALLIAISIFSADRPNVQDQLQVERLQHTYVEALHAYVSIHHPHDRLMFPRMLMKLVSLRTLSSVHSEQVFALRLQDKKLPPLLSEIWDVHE
T1 sequence (Q13133 209-447): as above

CS(=O)(=O)c1cc(N2CCN(C[C@H]3CC[C@@H](C(F)(F)F)CC3)[C@@H](c3ccccc3)C2)ccc1C(N)=O (single isomer, unassigned) [17-39]
Cell LXRα efficacy [1]: 9842 (125) % | IC50 [1]: 9840 nM | Cell LXRβ efficacy [2, 9]: 135% | IC50 [2, 10]: 2660 nM | FRET LXRβ efficacy (LXR β LBD protein [3]; agonist mode): 61% | EC50 (LXR β LBD protein [3]; agonist mode): 63 nM | Cell LXRβ efficacy ([4]; agonist mode): 26% | EC50 [4, 11]: 630 nM | EC50 (LXR α LBD protein [5]): 267 nM | FRET LXRα efficacy (LXR α LBD protein [5]): 55% | Ki (LXR β LBD protein [6]; read-out: LXRβ Binding Ki): 107 nM | Cell LXRα efficacy [7]: 1648 (67) % | EC50 [7]: 1650 nM

C[C@]1(c2ccccc2)CN(c2cccc(S(C)(=O)=O)c2)CCN1Cc1ccc(C(F)(F)F)cc1 (single isomer, unassigned) [46-21]
IC50 [1, 9]: > 10000 nM | IC50 [2]: 537 nM | Cell LXRβ efficacy [2, 9]: 537 (75) % | EC50 (LXR β LBD protein [3]): > 50000 nM | EC50 [4]: 541 nM | Cell LXRβ efficacy ([4]; agonist mode): 541 (12) % | EC50 (LXR α LBD protein [5]): 3000 nM | FRET LXRα efficacy (LXR α LBD protein [5]): 24% | Ki (LXR β LBD protein [6]): 85 nM | Cell LXRα efficacy [7]: 2026 (20) % | EC50 ([7]; agonist mode): 2030 nM

CS(=O)(=O)c1cccc(N2CCN(Cc3ccc(C(F)(F)F)c(F)c3)[C@@H](c3ccccc3)C2)c1 (single isomer, unassigned) [46-26]
Cell LXRα efficacy [1]: 7585 (36) % | IC50 [1, 9]: 7580 nM | IC50 [2]: 6800 nM | Cell LXRβ efficacy [2, 9]: 6798 (54) % | FRET LXRβ efficacy (LXR β LBD protein [3]; agonist mode): 411 (73) % | EC50 (LXR β LBD protein [3]): 411 nM | EC50 [4]: 676 nM | Cell LXRβ efficacy ([4]; agonist mode): 676 (62) % | EC50 (LXR α LBD protein [5]): 2860 nM | FRET LXRα efficacy (LXR α LBD protein [5]): 59% | Ki (LXR β LBD protein [6]; read-out: LXRβ Binding Ki): 58 nM | Cell LXRα efficacy [7]: 1479 (62) % | EC50 ([7]; agonist mode): 1480 nM

C[C@]1(c2ccccc2)CN(c2cccc(S(C)(=O)=O)c2)CCN1Cc1ccc(C(F)(F)F)c(Cl)c1 (single isomer, unassigned) [46-34]
Cell LXRα efficacy [1]: 7451 (87) % | IC50 [1, 9]: 7450 nM | IC50 [2]: 688 nM | Cell LXRβ efficacy [2, 9]: 688 (70) % | EC50 (LXR β LBD protein [3]): 257 nM | EC50 [4]: 587 nM | Cell LXRβ efficacy ([4]; agonist mode): 587 (10) % | EC50 (LXR α LBD protein [5]): 862 nM | FRET LXRα efficacy (LXR α LBD protein [5]): 40% | Ki (LXR β LBD protein [6]; read-out: LXRβ Binding Ki): 32 nM | Cell LXRα efficacy [7]: 2082 (24) % | EC50 ([7]; agonist mode): 2080 nM

CC(C)[C@H]1CC[C@H](CN2CCN(c3cccc(S(C)(=O)=O)c3)C[C@@H]2c2ccccc2)CC1 (single isomer, unassigned) [48-15]
IC50 [1]: > 10000 nM | Cell LXRβ efficacy [2, 9]: 60% | IC50 [2, 10]: 455 nM | FRET LXRβ efficacy (LXR β LBD protein [3]; agonist mode): 32% | EC50 (LXR β LBD protein [3]; agonist mode): 197 nM | Cell LXRβ efficacy ([4]; agonist mode): 21% | EC50 [4, 11]: 564 nM | EC50 (LXR α LBD protein [5]): 2310 nM | FRET LXRα efficacy (LXR α LBD protein [5]): 40% | Cell LXRα efficacy [7]: 1658 (31) % | EC50 [7]: 1660 nM

CS(=O)(=O)c1cccc(N2CCN(C[C@H]3CC[C@H](C(F)(F)F)CC3)[C@@H](c3ccccc3)C2)c1 (single isomer, unassigned) [48-33]
Cell LXRα efficacy [1]: 5224 (46) % | IC50 [1]: 5220 nM | Cell LXRβ efficacy [2, 9]: 52% | IC50 [2, 10]: 583 nM | FRET LXRβ efficacy (LXR β LBD protein [3]; agonist mode): 82% | EC50 (LXR β LBD protein [3]; agonist mode): 375 nM | Cell LXRβ efficacy ([4]; agonist mode): 32% | EC50 [4, 11]: 466 nM | EC50 (LXR α LBD protein [5]): 4870 nM | FRET LXRα efficacy (LXR α LBD protein [5]): 74% | Cell LXRα efficacy [7]: 1245 (49) % | EC50 [7]: 1240 nM

NS(=O)(=O)c1cccc(N2CCN(C[C@H]3CC[C@@H](C(F)(F)F)CC3)[C@@H](c3ccccc3)C2)c1 (single isomer, unassigned) [48-35]
Cell LXRα efficacy [1]: 7574 (100) % | IC50 [1]: 7570 nM | Cell LXRβ efficacy [2, 9]: 38% | IC50 [2, 10]: 317 nM | FRET LXRβ efficacy (LXR β LBD protein [3]; agonist mode): 22% | EC50 (LXR β LBD protein [3]; agonist mode): 46 nM | Cell LXRβ efficacy ([4]; agonist mode): 27% | EC50 [4, 11]: 120 nM | EC50 (LXR α LBD protein [5]): 416 nM | FRET LXRα efficacy (LXR α LBD protein [5]): 52% | Cell LXRα efficacy [7]: 351 (62) % | EC50 [7]: 351 nM

Cc1nc(N2CCN(c3ccc(F)c(S(C)(=O)=O)c3)C[C@H]2C(C)C)ncc1Cl [7-12, (R)-5-chloro-2-(4-(4-fluoro-3-(methylsulfonyl)phenyl)-2-isopropylpiperazin-1-yl)-4-methylpyrimidine]
IC50 [1]: > 10000 nM | IC50 [2]: > 10000 nM | Ki (LXR α LBD protein [8]): 105 nM | EC50 [4]: 177 nM | Cell LXRβ efficacy ([4]; agonist mode): 177 (58) % | EC50 (LXR α LBD protein [5]): 677 nM | FRET LXRα efficacy (LXR α LBD protein [5]): 86% | Ki (LXR β LBD protein [6]; read-out: LXRβ Binding Ki): 9 nM | Cell LXRα efficacy [7]: 997 (83) % | EC50 [7]: 997 nM

CC(C)[C@@H]1CN(c2ccc(F)c(S(C)(=O)=O)c2)CCN1c1ccc(C(F)(F)F)cn1 [7-36, (R)-4-(4-fluoro-3-(methylsulfonyl)phenyl)-2-isopropyl-1-(5-(trifluoromethyl)pyridin-2-yl)piperazine]
IC50 [1]: > 10000 nM | IC50 [2]: > 10000 nM | Ki (LXR α LBD protein [8]): 30 nM | Cell LXRβ efficacy [4]: 121 (93) % | EC50 [4]: 121 nM | EC50 (LXR α LBD protein [5]): 415 nM | FRET LXRα efficacy (LXR α LBD protein [5]): 102% | Ki (LXR β LBD protein [6]; read-out: LXRβ Binding Ki): 4 nM | Cell LXRα efficacy [7]: 333 (106) % | EC50 [7]: 333 nM

CS(=O)(=O)c1cccc(N2CCN(Cc3ccc(C(F)(F)F)cc3)[C@@H](c3ccc(F)cc3)C2)c1 [46-24, (S)-2-(4-fluorophenyl)-4-(3-(methylsulfonyl)phenyl)-1-(4-(trifluoromethyl)benzyl)piperazine]
Cell LXRα efficacy [1]: 3139 (51) % | IC50 [1, 9]: 3140 nM | IC50 [2]: 5820 nM | Cell LXRβ efficacy [2, 9]: 5823 (95) % | FRET LXRβ efficacy (LXR β LBD protein [3]; agonist mode): 347 (45) % | EC50 (LXR β LBD protein [3]): 347 nM | EC50 [4]: 636 nM | Cell LXRβ efficacy ([4]; agonist mode): 636 (27) % | EC50 (LXR α LBD protein [5]): 2700 nM | FRET LXRα efficacy (LXR α LBD protein [5]): 39% | Ki (LXR β LBD protein [6]; read-out: LXRβ Binding Ki): 359 nM | Cell LXRα efficacy [7]: 2711 (31) % | EC50 ([7]; agonist mode): 2710 nM

CC(C)[C@@H]1CN(c2ccc(F)c(S(C)(=O)=O)c2Cl)CCN1c1ncc(Cl)c(C2CC2)n1 [Cpd No 22-2, (R)-5-chloro-2-(4-(2-chloro-4-fluoro-3-(methylsulfonyl)phenyl)-2-isopropylpiperazin-1-yl)-4-cyclopropylpyrimidine]
Cell LXRα efficacy [1]: 3610 (83) % | IC50 [1]: 3610 nM | Cell LXRβ efficacy [2]: 2144 (96) % | IC50 [2]: 2140 nM | Cell LXRβ efficacy [4]: 750 (10) % | EC50 [4]: 750 nM | EC50 (LXR α LBD protein [5]): 271 nM | FRET LXRα efficacy (LXR α LBD protein [5]): 12% | Ki (LXR β LBD protein [6]; read-out: LXRβ Binding Ki): 172 nM | Cell LXRα efficacy [7]: 1227 (7) % | EC50 [7]: 1230 nM

CC(C)[C@@H]1CN(c2ccc(F)c(S(C)(=O)=O)c2)CCN1c1ncc(Cc2ccc(C(C)(C)O)cc2)c(C(F)(F)F)n1 [Cpd No 31-1, (R)-2-(4-((2-(4-(4-fluoro-3-(methylsulfonyl)phenyl)-2-isopropylpiperazin-1-yl)-4-(trifluoromethyl)pyrimidin-5-yl)methyl)phenyl)propan-2-ol]
Cell LXRα efficacy [1]: 443 (98) % | IC50 [1]: 443 nM | IC50 [2]: 115 nM | Cell LXRβ efficacy [2, 9]: 115 (124) % | Ki (LXR α LBD protein [8]): 159 nM | EC50 [4]: > 20000 nM | Ki (LXR β LBD protein [6]; read-out: LXRβ Binding Ki): 18 nM | Cell LXRα efficacy [7]: 2718 (7) % | EC50 [7]: 2720 nM

benzyl (R)-2-isobutyl-4-(3-(methylsulfonyl)phenyl)piperazine-1-carboxylate [1-13]
Cell LXRα efficacy [1]: 4105 (131) % | IC50 [1]: 4100 nM | Cell LXRβ efficacy [2, 9]: 132% | IC50 [2, 10]: 756 nM | FRET LXRβ efficacy (LXR β LBD protein [3]; agonist mode): 52% | EC50 (LXR β LBD protein [3]; agonist mode): 36 nM | Cell LXRβ efficacy ([4]; agonist mode): 7% | EC50 [4, 11]: 265 nM | EC50 (LXR α LBD protein [5]): 586 nM | FRET LXRα efficacy (LXR α LBD protein [5]): 37% | Cell LXRα efficacy [7]: 2139 (16) % | EC50 [7]: 2140 nM
